PubChem BioAssay (NCI)
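Cells were grown in 96-well plates and exposed to each compound for 48 hours at five concentrations; endpoints were interpolated linearly between bracketing concentrations, or set to the highest concentration if not reached. GI50 = concentration required for 50% inhibition of growth. At the TGI there is no net growth.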

How the values were obtained:
Assay in all cases: DTP human tumour cell line panel, 48 h
RXF 393 renal = test system: RXF 393 renal
SNB-19 CNS = test system: SNB-19 CNS
HOP-92 NSCLC = test system: HOP-92 NSCLC
U251 CNS = test system: U251 CNS
NCI-H226 lung = test system: NCI-H226 lung
HT29 colon = test system: HT29 colon
KM12 colon = test system: KM12 colon
HS 578T breast = test system: HS 578T breast
CAKI-1 renal = test system: CAKI-1 renal
EKVX NSCLC = test system: EKVX NSCLC
SF-295 CNS = test system: SF-295 CNS
IGROV1 ovarian = test system: IGROV1 ovarian
SK-OV-3 ovarian = test system: SK-OV-3 ovarian
SK-MEL-5 melanoma = test system: SK-MEL-5 melanoma
HCT-116 colon = test system: HCT-116 colon
A549 NSCLC = test system: A549 NSCLC
HCT-15 colon = test system: HCT-15 colon
NCI-H23 lung = test system: NCI-H23 lung
SF-268 CNS = test system: SF-268 CNS
UACC-257 melanoma = test system: UACC-257 melanoma
HCC-2998 colon = test system: HCC-2998 colon
MCF7 breast = test system: MCF7 breast
UACC-62 melanoma = test system: UACC-62 melanoma
NCI-H460 lung = test system: NCI-H460 lung
PC-3 prostate = test system: PC-3 prostate
MOLT-4 leukemia = test system: MOLT-4 leukemia
CCRF-CEM leukemia = test system: CCRF-CEM leukemia
T-47D breast = test system: T-47D breast
RPMI-8226 leukemia = test system: RPMI-8226 leukemia
MALME-3M melanoma = test system: MALME-3M melanoma
SK-MEL-2 melanoma = test system: SK-MEL-2 melanoma
SR leukemia = test system: SR leukemia
OVCAR-4 ovarian = test system: OVCAR-4 ovarian
MDA-MB-231 breast = test system: MDA-MB-231 breast
786-0 renal = test system: 786-0 renal
OVCAR-5 ovarian = test system: OVCAR-5 ovarian
OVCAR-3 ovarian = test system: OVCAR-3 ovarian
SK-MEL-28 melanoma = test system: SK-MEL-28 melanoma
NCI/ADR-RES ovarian = test system: NCI/ADR-RES ovarian
M14 melanoma = test system: M14 melanoma
HL-60(TB) leukemia = test system: HL-60(TB) leukemia
ACHN renal = test system: ACHN renal
NCI-H522 lung = test system: NCI-H522 lung
SF-539 CNS = test system: SF-539 CNS
COLO 205 colon = test system: COLO 205 colon
SN12C renal = test system: SN12C renal
UO-31 renal = test system: UO-31 renal
HOP-62 NSCLC = test system: HOP-62 NSCLC
BT-549 breast = test system: BT-549 breast
SW-620 colon = test system: SW-620 colon
K-562 leukemia = test system: K-562 leukemia
OVCAR-8 ovarian = test system: OVCAR-8 ovarian
MDA-MB-435 = test system: MDA-MB-435
TK-10 renal = test system: TK-10 renal
DU-145 prostate = test system: DU-145 prostate

## Cc1csc(Nc2nc(-c3cccc(Cl)c3)nc(C(Cl)(Cl)Cl)n2)n1
RXF 393 renal
  GI50: 1120 nM
  TGI: 6.44 µM
SNB-19 CNS
  GI50: 3.27 µM
  TGI: > 33.3 µM
HOP-92 NSCLC
  GI50: 801 nM
  TGI: 3.21 µM
U251 CNS
  GI50: 1400 nM
  TGI: 19.9 µM
NCI-H226 lung
  GI50: > 33.3 µM
  TGI: > 33.3 µM
HT29 colon
  GI50: 1040 nM
  TGI: 13.1 µM
KM12 colon
  GI50: 1640 nM
  TGI: 6.21 µM
HS 578T breast
  GI50: 1790 nM
  TGI: 13.2 µM
CAKI-1 renal
  GI50: 3.07 µM
  TGI: > 33.3 µM
EKVX NSCLC
  GI50: 1250 nM
  TGI: 6.89 µM
SF-295 CNS
  GI50: 1290 nM
  TGI: 9.89 µM
IGROV1 ovarian
  GI50: 15.7 µM
  TGI: > 33.3 µM
SK-OV-3 ovarian
  GI50: 8.69 µM
  TGI: > 33.3 µM
SK-MEL-5 melanoma
  GI50: > 33.3 µM
  TGI: > 33.3 µM
HCT-116 colon
  GI50: 2290 nM
  TGI: > 33.3 µM
A549 NSCLC
  GI50: 1060 nM
  TGI: 5.27 µM
HCT-15 colon
  GI50: 4.46 µM
  TGI: > 33.3 µM
NCI-H23 lung
  GI50: 23.7 µM
  TGI: > 33.3 µM
SF-268 CNS
  GI50: 6.48 µM
  TGI: > 33.3 µM
UACC-257 melanoma
  GI50: 3.53 µM
  TGI: 28 µM
HCC-2998 colon
  GI50: 1220 nM
  TGI: 4.71 µM
MCF7 breast
  GI50: 1460 nM
  TGI: > 33.3 µM
UACC-62 melanoma
  GI50: 6.73 µM
  TGI: > 33.3 µM
NCI-H460 lung
  GI50: 1220 nM
  TGI: 5.42 µM
PC-3 prostate
  GI50: 1270 nM
  TGI: 7.85 µM
MOLT-4 leukemia
  GI50: 14 µM
  TGI: > 33.3 µM
CCRF-CEM leukemia
  GI50: 21.7 µM
  TGI: > 33.3 µM
T-47D breast
  GI50: 1040 nM
  TGI: 8.54 µM
RPMI-8226 leukemia
  GI50: 1220 nM
  TGI: > 33.3 µM
MALME-3M melanoma
  GI50: > 33.3 µM
  TGI: > 33.3 µM
SK-MEL-2 melanoma
  GI50: 25.8 µM
  TGI: > 33.3 µM
SR leukemia
  GI50: 16.8 µM
  TGI: > 33.3 µM
OVCAR-4 ovarian
  GI50: 10.7 µM
  TGI: > 33.3 µM
MDA-MB-231 breast
  GI50: 2170 nM
  TGI: > 33.3 µM
786-0 renal
  GI50: 11 µM
  TGI: > 33.3 µM
OVCAR-5 ovarian
  GI50: 8.86 µM
  TGI: > 33.3 µM
OVCAR-3 ovarian
  GI50: 1060 nM
  TGI: 3.53 µM
SK-MEL-28 melanoma
  GI50: 3.53 µM
  TGI: > 33.3 µM
NCI/ADR-RES ovarian
  GI50: 4.15 µM
  TGI: > 33.3 µM
M14 melanoma
  GI50: > 33.3 µM
  TGI: > 33.3 µM
HL-60(TB) leukemia
  GI50: 994 nM
  TGI: 3.81 µM
ACHN renal
  GI50: 888 nM
  TGI: 3.46 µM
NCI-H522 lung
  GI50: > 33.3 µM
  TGI: > 33.3 µM
SF-539 CNS
  GI50: 2040 nM
  TGI: 11.7 µM
COLO 205 colon
  GI50: 1040 nM
  TGI: 5.43 µM
SN12C renal
  GI50: 13.5 µM
  TGI: > 33.3 µM
UO-31 renal
  GI50: 2380 nM
  TGI: 15.7 µM
HOP-62 NSCLC
  GI50: 1270 nM
  TGI: 7.99 µM
BT-549 breast
  GI50: > 33.3 µM
  TGI: > 33.3 µM
SW-620 colon
  GI50: 2210 nM
  TGI: > 33.3 µM
K-562 leukemia
  GI50: 7.41 µM
  TGI: > 33.3 µM
OVCAR-8 ovarian
  GI50: 7.77 µM
  TGI: > 33.3 µM
MDA-MB-435
  GI50: 7.83 µM
  TGI: > 33.3 µM
TK-10 renal
  GI50: 2510 nM
  TGI: 14.4 µM
DU-145 prostate
  GI50: 713 nM
  TGI: 2010 nM
